One assay concerns the target human TLR9 (Homo sapiens (Human), UniProt Q9NR96). Kind of assay: TLR9 inhibition reporter assay (HEK-Blue cells, SEAP reporter, ODN2006 stimulation).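 Also: compounds tested over 0.05 nM to 50 µM, 22 h incubation, inhibition taken as SEAP signal drop from agonist plus DMSO wells toward a known inhibitor control.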 The conditions noted are these: read-out: TLR9 IC50, HEK-Blue cells overexpressing human TLR9, ODN2006 5 nM. On the technique in general: A reporter such as luciferase makes a cellular process visible.
For the next assay, the target named is human TLR8 (Homo sapiens (Human), UniProt Q9NR97). Description: TLR8 inhibition reporter assay (HEK-Blue cells, SEAP reporter, R848 stimulation).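 Also: compounds tested from 0.05 nM to 50 µM, 22 h at 37 °C, SEAP measured with HEK-Blue Detection, inhibition relative to agonist plus DMSO versus a known inhibitor.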 Conditions: read-out: TLR8 IC50, HEK-Blue cells overexpressing human TLR8, R848 15.9 μM.
human TLR8, sequence (Q9NR97 27-1041): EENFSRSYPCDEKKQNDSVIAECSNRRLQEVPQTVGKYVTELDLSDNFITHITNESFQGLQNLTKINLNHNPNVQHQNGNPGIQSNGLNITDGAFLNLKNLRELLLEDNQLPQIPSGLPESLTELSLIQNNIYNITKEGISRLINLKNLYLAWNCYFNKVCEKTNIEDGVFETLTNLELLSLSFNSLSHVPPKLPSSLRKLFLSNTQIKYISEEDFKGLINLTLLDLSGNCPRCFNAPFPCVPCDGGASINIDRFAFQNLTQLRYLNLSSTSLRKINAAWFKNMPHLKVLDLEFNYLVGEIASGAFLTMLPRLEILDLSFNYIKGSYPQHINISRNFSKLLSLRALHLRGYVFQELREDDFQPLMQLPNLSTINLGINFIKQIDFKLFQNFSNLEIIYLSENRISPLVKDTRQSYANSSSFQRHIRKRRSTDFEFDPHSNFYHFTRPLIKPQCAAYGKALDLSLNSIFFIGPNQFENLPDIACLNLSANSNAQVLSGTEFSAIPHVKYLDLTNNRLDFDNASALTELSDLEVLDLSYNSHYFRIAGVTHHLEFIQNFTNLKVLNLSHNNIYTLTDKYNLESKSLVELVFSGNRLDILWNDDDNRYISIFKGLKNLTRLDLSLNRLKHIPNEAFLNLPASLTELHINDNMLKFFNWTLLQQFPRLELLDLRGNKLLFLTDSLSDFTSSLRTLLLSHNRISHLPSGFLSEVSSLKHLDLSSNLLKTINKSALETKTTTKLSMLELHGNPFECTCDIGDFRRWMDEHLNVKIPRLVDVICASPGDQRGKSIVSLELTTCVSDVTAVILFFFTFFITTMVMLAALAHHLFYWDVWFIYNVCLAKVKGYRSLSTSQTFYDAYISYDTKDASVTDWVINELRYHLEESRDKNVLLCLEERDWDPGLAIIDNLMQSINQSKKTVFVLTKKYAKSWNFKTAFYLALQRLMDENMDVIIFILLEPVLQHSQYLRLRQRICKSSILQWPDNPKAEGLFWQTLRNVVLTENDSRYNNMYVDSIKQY
In the next assay the target is human TLR7 (Homo sapiens (Human), UniProt Q9NYK1). Description: TLR7 inhibition reporter assay (HEK-Blue cells, SEAP reporter, gardiquimod stimulation). In kind it is cell-based. Conditions: HEK-Blue cells overexpressing human TLR7, gardiquimod 7.5 μM.
human TLR7, sequence (Q9NYK1 27-1049): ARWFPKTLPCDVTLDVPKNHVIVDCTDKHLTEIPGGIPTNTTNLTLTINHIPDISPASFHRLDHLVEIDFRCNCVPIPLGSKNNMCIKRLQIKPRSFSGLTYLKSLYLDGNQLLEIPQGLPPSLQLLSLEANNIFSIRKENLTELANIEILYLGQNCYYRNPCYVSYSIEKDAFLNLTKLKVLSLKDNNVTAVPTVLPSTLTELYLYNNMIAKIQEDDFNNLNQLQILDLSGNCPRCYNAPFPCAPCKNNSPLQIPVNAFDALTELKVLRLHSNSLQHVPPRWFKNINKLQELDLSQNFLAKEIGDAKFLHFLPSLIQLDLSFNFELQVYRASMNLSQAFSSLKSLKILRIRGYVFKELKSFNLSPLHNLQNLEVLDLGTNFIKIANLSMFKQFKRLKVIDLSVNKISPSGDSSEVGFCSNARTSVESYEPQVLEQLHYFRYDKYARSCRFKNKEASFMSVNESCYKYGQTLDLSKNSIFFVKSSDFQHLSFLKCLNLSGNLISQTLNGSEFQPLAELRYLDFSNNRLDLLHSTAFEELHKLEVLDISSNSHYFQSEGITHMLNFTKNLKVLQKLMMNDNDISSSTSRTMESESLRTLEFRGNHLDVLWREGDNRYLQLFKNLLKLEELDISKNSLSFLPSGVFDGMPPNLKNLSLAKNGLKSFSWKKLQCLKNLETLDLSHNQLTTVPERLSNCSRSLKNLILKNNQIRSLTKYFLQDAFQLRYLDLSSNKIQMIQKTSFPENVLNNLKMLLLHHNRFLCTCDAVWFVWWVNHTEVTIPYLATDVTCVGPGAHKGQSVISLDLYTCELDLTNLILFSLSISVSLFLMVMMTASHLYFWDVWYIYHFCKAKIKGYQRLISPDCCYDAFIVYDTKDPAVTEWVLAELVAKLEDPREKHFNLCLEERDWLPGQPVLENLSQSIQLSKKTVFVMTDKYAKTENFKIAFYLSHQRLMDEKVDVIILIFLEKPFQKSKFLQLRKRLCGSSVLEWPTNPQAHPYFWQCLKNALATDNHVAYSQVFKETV

pIC50: −log10 of the molar value.

In patent US10660877B2 (BRISTOL-MYERS SQUIBB COMPANY, priority 2016, dated 2020) one finds IC50 data, which are given here for 26 compounds.

human TLR9, sequence (Q9NR96 26-1032): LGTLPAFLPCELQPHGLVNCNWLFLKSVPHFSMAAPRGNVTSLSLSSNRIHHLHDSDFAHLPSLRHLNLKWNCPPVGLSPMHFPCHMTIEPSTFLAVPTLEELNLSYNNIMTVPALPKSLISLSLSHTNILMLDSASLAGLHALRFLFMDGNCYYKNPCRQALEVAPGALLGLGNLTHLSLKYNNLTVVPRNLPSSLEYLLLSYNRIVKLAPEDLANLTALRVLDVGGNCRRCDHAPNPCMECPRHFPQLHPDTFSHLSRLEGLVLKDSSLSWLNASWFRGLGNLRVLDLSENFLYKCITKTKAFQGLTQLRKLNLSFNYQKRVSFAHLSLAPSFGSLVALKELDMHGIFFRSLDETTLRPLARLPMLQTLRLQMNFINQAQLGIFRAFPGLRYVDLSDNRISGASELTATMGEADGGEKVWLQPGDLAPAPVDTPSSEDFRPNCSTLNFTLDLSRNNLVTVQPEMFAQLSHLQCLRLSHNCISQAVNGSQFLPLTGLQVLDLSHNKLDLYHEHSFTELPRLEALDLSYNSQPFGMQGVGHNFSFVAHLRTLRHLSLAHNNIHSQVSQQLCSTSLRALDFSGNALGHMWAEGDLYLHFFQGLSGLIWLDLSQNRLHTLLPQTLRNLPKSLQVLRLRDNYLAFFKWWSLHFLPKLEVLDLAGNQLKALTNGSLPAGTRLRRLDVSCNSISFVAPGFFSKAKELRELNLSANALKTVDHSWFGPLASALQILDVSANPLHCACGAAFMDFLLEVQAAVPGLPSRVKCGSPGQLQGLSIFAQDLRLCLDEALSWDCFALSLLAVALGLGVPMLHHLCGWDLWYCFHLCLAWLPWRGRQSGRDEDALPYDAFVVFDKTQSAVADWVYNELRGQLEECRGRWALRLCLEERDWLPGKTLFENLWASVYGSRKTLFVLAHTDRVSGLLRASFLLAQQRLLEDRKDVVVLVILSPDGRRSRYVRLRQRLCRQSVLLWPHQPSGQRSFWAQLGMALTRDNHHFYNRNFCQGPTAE

For the compound `Cc1cc(-c2[nH]c3ccc(C4CCN(C5CC(C)OC6(CC6)C5)CC4)cc3c2C(C)C)cc(C)n1` (stereo not drawn) [Example 456, 2-(2,6-dimethylpyridin-4-yl)-3-isopropyl-5-(1-(5-methyl-4-oxaspiro[2.5]octan-7-yl)piperidin-4-yl)-1H-indole], the pIC50 (in general, −log10 of the IC50, conventionally taken in molar units) at human TLR9 is 6.47; on human TLR8 it was 8.24; at human TLR7 it was 8.38.
In the case of `Cc1cc(-c2[nH]c3ccc(C4CCN(C5CCCOC5)CC4)cc3c2C(C)C)cc(C)n1` (stereo not drawn) [Example 457, 2-(2,6-dimethylpyridin-4-yl)-3-isopropyl-5-(1-(tetrahydro-2H-pyran-3-yl)piperidin-4-yl)-1H-indole], the pIC50 on human TLR9 is 6.56; at human TLR8, 8.06; at human TLR7 it was 8.57.
The like results for `Cc1cc(-c2[nH]c3ccc(C4CCN(C5CCOC6CCCC65)CC4)cc3c2C(C)C)cc(C)n1` (stereo not drawn) [Example 458, 2-(2,6-dimethylpyridin-4-yl)-3-isopropyl-5-(1-(octahydrocyclopenta[b]pyran-4-yl)piperidin-4-yl)-1H-indole] were, in that order, 6.27, 7.67 and 7.78.
For `Cc1cc(-c2[nH]c3ccc(C4CCN(C5CCS(=O)(=O)CC5)CC4)cc3c2C(C)C)cc(C)n1` [Example 459, 4-(4-(2-(2,6-dimethylpyridin-4-yl)-3-isopropyl-1H-indol-5-yl)piperidin-1-yl)tetrahydro-2H-thiopyran 1,1-dioxide], the pIC50 was 5.92 at human TLR9, 8.44 at human TLR8 and 8.43 against human TLR7.
Regarding `Cc1cc(-c2[nH]c3ccc(C4CCN(Cc5ncccn5)CC4)cc3c2C(C)C)cc(C)n1` [Example 460, 2-(2,6-dimethylpyridin-4-yl)-3-isopropyl-5-(1-(pyrimidin-2-ylmethyl)piperidin-4-yl)-1H-indole], the negative logarithm of the IC50 (pIC50) on human TLR9 was 6.40; at human TLR8, 8.24; against human TLR7, 8.21.
The like results for `Cc1cc(-c2[nH]c3ccc(C4CCN(Cc5ccnn5C)CC4)cc3c2C(C)C)cc(C)n1` [Example 461, 2-(2,6-dimethylpyridin-4-yl)-3-isopropyl-5-(1-((1-methyl-1H-pyrazol-5-yl)methyl)piperidin-4-yl)-1H-indole] were, in that order, 6.21, 8.12 and 8.03.
The like results for `Cc1cc(-c2[nH]c3ccc(C4CCN(Cc5nn[nH]n5)CC4)cc3c2C(C)C)cc(C)n1` [Example 462, 5-(1-((2H-tetrazol-5-yl)methyl)piperidin-4-yl)-2-(2,6-dimethylpyridin-4-yl)-3-isopropyl-1H-indole] were, in that order, 5.28, 6.68 and 7.15.
For `Cc1cc(-c2[nH]c3ccc(C4CCN(Cc5ncon5)CC4)cc3c2C(C)C)cc(C)n1` [Example 463, 3-((4-(2-(2,6-dimethylpyridin-4-yl)-3-isopropyl-1H-indol-5-yl)piperidin-1-yl)methyl)-1,2,4-oxadiazole], the pIC50 at human TLR9 is 5.47; at human TLR8, 7.75; on human TLR7 it was 8.08.
On the same counts, the results for `Cc1cc(-c2[nH]c3ccc(C4CCN(Cc5nncn5C)CC4)cc3c2C(C)C)cc(C)n1` [Example 464, 2-(2,6-dimethylpyridin-4-yl)-3-isopropyl-5-(1-((4-methyl-4H-1,2,4-triazol-3-yl)methyl)piperidin-4-yl)-1H-indole] are 5.59, 8.20 and 8.20.
As to `Cc1cc(-c2[nH]c3ccc(C4CCN(CC5CCN(C(C)C)C5)CC4)cc3c2C(C)C)cc(C)n1` (stereo not drawn) [Example 465, 2-(2,6-dimethylpyridin-4-yl)-3-isopropyl-5-(1-((1-isopropylpyrrolidin-3-yl)methyl)piperidin-4-yl)-1H-indole], the pIC50 on human TLR9 is 6.83; on human TLR8, 8.33; on human TLR7, 8.15.
Turning to `Cc1cc(-c2[nH]c3ccc(C4CCN(CC5CCNC5)CC4)cc3c2C(C)C)cc(C)n1` (stereo not drawn) [Example 466, 2-(2,6-dimethylpyridin-4-yl)-3-isopropyl-5-(1-(pyrrolidin-3-ylmethyl)piperidin-4-yl)-1H-indole], the pIC50 on human TLR9 is 6.56; at human TLR8 it was 8.43; against human TLR7 it was 8.19.
On the same counts, the results for `Cc1cc(-c2[nH]c3ccc(C4CCN(CC5CCC5)CC4)cc3c2C(C)C)cc(C)n1` [Example 467, 5-(1-(cyclobutylmethyl)piperidin-4-yl)-2-(2,6-dimethylpyridin-4-yl)-3-isopropyl-1H-indole] are 6.81, 8.24 and 8.60.
Consider `Cc1cc(-c2[nH]c3ccc(C4CCN(CC5CCCC5)CC4)cc3c2C(C)C)cc(C)n1` [Example 468, 5-(1-(cyclopentylmethyl)piperidin-4-yl)-2-(2,6-dimethylpyridin-4-yl)-3-isopropyl-1H-indole], for which the pIC50 was 5.87 on human TLR9, 7.45 on human TLR8 and 7.75 against human TLR7.
Take `Cc1cc(-c2[nH]c3ccc(C4CCN(CC5CCOC5)CC4)cc3c2C(C)C)cc(C)n1` (stereo not drawn) [Example 469, 2-(2,6-dimethylpyridin-4-yl)-3-isopropyl-5-(1-((tetrahydrofuran-3-yl)methyl)piperidin-4-yl)-1H-indole]: the results for the pIC50 at human TLR9, at human TLR8 and on human TLR7 were 6.55, 8.54 and 8.68, respectively.
The like results for `Cc1cc(-c2[nH]c3ccc(C4CCN(CC(C)(C)C)CC4)cc3c2C(C)C)cc(C)n1` [Example 470, 2-(2,6-dimethylpyridin-4-yl)-3-isopropyl-5-(1-neopentylpiperidin-4-yl)-1H-indole] were, in that order, 6.27, 7.62 and 8.23.
As for `Cc1cc(-c2[nH]c3ccc(C4CCN(CC(C)C)CC4)cc3c2C(C)C)cc(C)n1` [Example 471, 2-(2,6-dimethylpyridin-4-yl)-5-(1-isobutylpiperidin-4-yl)-3-isopropyl-1H-indole], the pIC50 on human TLR9 is 6.21; at human TLR8, 8.10; at human TLR7, 8.62.
For the compound `Cc1cc(-c2[nH]c3ccc(C4CCN(C(C)CF)CC4)cc3c2C(C)C)cc(C)n1` (stereo not drawn) [Example 472, 2-(2,6-dimethylpyridin-4-yl)-5-(1-(1-fluoropropan-2-yl)piperidin-4-yl)-3-isopropyl-1H-indole], the pIC50 at human TLR9 is 6.22; at human TLR8 it was 7.88; against human TLR7, 8.12.
On the same counts, the results for `Cc1cc(-c2[nH]c3ccc(C4CCN(C(CF)CF)CC4)cc3c2C(C)C)cc(C)n1` [Example 473, 5-(1-(1,3-difluoropropan-2-yl)piperidin-4-yl)-2-(2,6-dimethylpyridin-4-yl)-3-isopropyl-1H-indole] are 6.08, 7.68 and 8.00.
`Cc1cc(-c2[nH]c3ccc(C4CCN(CC5CC5)CC4)cc3c2C(C)C)cc(C)n1` [Example 474, 5-(1-(cyclopropylmethyl)piperidin-4-yl)-2-(2,6-dimethylpyridin-4-yl)-3-isopropyl-1H-indole]: the pIC50 is 6.30 at human TLR9, 8.49 at human TLR8 and 8.60 at human TLR7.
On the same counts, the results for `Cc1cc(-c2[nH]c3ccc(C4CCN(CC5(C)COC5)CC4)cc3c2C(C)C)cc(C)n1` [Example 475, 2-(2,6-dimethylpyridin-4-yl)-3-isopropyl-5-(1-((3-methyloxetan-3-yl)methyl)piperidin-4-yl)-1H-indole] are 6.47, 8.66 and 8.39.
The like results for `CC(C)c1c(-c2ccnc(C(=O)NCC(F)(F)F)c2)[nH]c2ccc(C3CCNCC3)cc12` [Example 476, 4-(3-isopropyl-5-(piperidin-4-yl)-1H-indol-2-yl)-N-(2,2,2-trifluoroethyl) picolinamide] were, in that order, 5.49, 5.98 and 5.22.
Regarding `CC(C)c1c(-c2ccnc(C(=O)Nc3nccs3)c2)[nH]c2ccc(C3CCNCC3)cc12` [Example 477, 4-(3-isopropyl-5-(piperidin-4-yl)-1H-indol-2-yl)-N-(thiazol-2-yl) picolinamide], the values for the pIC50 on human TLR9, at human TLR8 and on human TLR7 were 5.66, 5.96 and 5.51, respectively.
For the compound `Cc1cc(-c2[nH]c3ccc(C4CCNCC4)cc3c2C(C)C)cc(N2CCN(C)CC2)n1` [Example 480, 3-isopropyl-2-(2-methyl-6-(4-methylpiperazin-1-yl)pyridin-4-yl)-5-(piperidin-4-yl)-1H-indole], the pIC50 was 6.15 at human TLR9, 5.15 at human TLR8 and 5.54 on human TLR7.
The like results for `CC(C)c1c(-c2cc(C3CC3)ncc2F)[nH]c2ccc(C3CCNCC3)cc12` [Example 481, 2-(2-cyclopropyl-5-fluoropyridin-4-yl)-3-isopropyl-5-(piperidin-4-yl)-1H-indole] were, in that order, 6.17, 7.02 and 7.80.
In the case of `CCc1cc(-c2[nH]c3ccc(C4CCNCC4)cc3c2C(C)C)c(F)cn1` [Example 482, 2-(2-ethyl-5-fluoropyridin-4-yl)-3-isopropyl-5-(piperidin-4-yl)-1H-indole], the figures for the pIC50 at human TLR9, at human TLR8 and at human TLR7 were 5.43, 7.72 and 7.97, respectively.
For `Cc1nc(CN2CCC(c3ccc4[nH]c(-c5ccnc(C6CC6)c5)c(C(C)C)c4c3)CC2)c[nH]1` [Example 484, 2-(2-cyclopropylpyridin-4-yl)-3-isopropyl-5-(1-((2-methyl-1H-imidazol-4-yl)methyl)piperidin-4-yl)-1H-indole], the pIC50 at human TLR9 was 6.55; at human TLR8, 7.02; against human TLR7, 7.11.
